Measured values reported in patent publication US9862708B2, “Pyrazolone compounds and uses thereof” (Tempest Therapeutics, Inc., priority 2014, dated 2018).

Molecular target: T1, human PPARα (Homo sapiens, UniProt Q07869)
T1 construct: host or cells: proprietary non-human mammalian cells
T1 sequence (Q07869 1-468): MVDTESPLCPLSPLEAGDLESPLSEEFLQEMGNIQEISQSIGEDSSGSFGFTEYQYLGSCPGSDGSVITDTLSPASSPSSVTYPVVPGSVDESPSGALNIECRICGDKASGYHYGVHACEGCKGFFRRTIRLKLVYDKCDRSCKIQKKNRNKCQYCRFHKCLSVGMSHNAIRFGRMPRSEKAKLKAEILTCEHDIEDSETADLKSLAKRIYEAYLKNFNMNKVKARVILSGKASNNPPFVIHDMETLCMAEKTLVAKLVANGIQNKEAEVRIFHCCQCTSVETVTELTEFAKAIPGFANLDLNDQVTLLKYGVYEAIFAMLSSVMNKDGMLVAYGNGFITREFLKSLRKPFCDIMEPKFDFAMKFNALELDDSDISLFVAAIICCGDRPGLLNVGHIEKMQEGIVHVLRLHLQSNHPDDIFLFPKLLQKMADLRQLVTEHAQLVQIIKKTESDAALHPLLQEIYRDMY
Experiment: Human PPARα Reporter Assay (luciferase, Indigo Biosciences)
Type: cell-based
Conditions: antagonism; luciferase reporter cells, overnight incubation; read-out: PPARα IC50
Method: Human PPARα Reporter Assay
The screening of test compounds for agonist or antagonist activities against human PPARα receptors was performed using a commercial kit, Human PPARα Reporter Assay System (Indigo Biosciences, Cat. #IB00111).
This nuclear receptor assay system utilizes proprietary non-human mammalian cells engineered to provide constitutive, high-level expression of Human PPARα. Because these cells incorporate a PPARα-responsive luciferase reporter gene, quantifying expressed luciferase activity provides a sensitive surrogate measure of PPARα activity in the treated cells. The primary application of this reporter assay system is in the screening of test samples to quantify any functional activity, either agonist or antagonist, that they may exert against human PPARα.
Briefly, reporter cells are dispensed into wells of the assay plate and then immediately dosed with test compounds. Following an overnight incubation, the treatment media is discarded and Luciferase Detection Reagent (LDR) is added. The intensity of light emission from the ensuing luciferase reaction provides a sensitive measure that is directly proportional to the relative level of PPARα activation in the reporter cells.

SMILES | IC50
CC(C)(Oc1ccc(CCCC2=NN(Cc3ccc(C4CCCCC4)cc3)C(=O)C2(C)C)cc1)C(=O)O [Example 17, 2-(4-(3-(1-(4-cyclohexylbenzyl)-4,4-dimethyl-5-oxo-4,5-dihydro-1H-pyrazol-3-yl)propyl)phenoxy)-2-methylpropanoic acid] | 140 nM
CC(C)(Oc1ccc(CCCC2=NN(Cc3ccc(-c4ccccc4)cc3)C(=O)C2(C)C)cc1)C(=O)O [Example 14, 2-(4-(3-(1-([1,1′-biphenyl]-4-ylmethyl)-4,4-dimethyl-5-oxo-4,5-dihydro-1H-pyrazol-3-yl)propyl)phenoxy)-2-methylpropanoic acid] | 260 nM
CC(C)(Oc1ccc(CCCC2=NN(Cc3ccc(C(F)(F)F)cc3)C(=O)C2(C)C)cc1)C(=O)O [Example 8, 2-(4-(3-(4,4-dimethyl-5-oxo-1-(4-(trifluoromethyl)benzyl)-4,5-dihydro-1H-pyrazol-3-yl)propyl)phenoxy)-2-methylpropanoic acid] | 62 nM
CC(C)(Oc1ccc(CCCC2=NN(c3ccc(C(F)(F)F)cc3)C(=O)C23CCCC3)cc1)C(=O)NCC(F)(F)F [Example 27, 2-methyl-2-(4-(3-(4-oxo-3-(4-(trifluoromethyl)phenyl)-2,3-diazaspiro[4,4]non-1-en-1-yl)propyl)phenoxy)-N-(2,2,2-trifluoroethyl)propanamide] | 410 nM
CC1(C)C(=O)N(c2ccc(C(F)(F)F)cc2)N=C1CCCc1ccc(OC(C)(C)C(O)C(F)(F)F)cc1 (stereo not shown) [Example 43, 4,4-dimethyl-3-(3-(4-((4,4,4-trifluoro-3-hydroxy-2-methylbutan-2-yl)oxy)phenyl)propyl)-1-(4-(trifluoromethyl)phenyl)-1H-pyrazol-5(4H)-one] | 1200 nM
CC(C)(Oc1ccc(CCCC2=NN(c3cccc(OC(F)(F)F)c3)C(=O)C23CCCC3)cc1)C(=O)O [Example 36, 2-methyl-2-(4-(3-(4-oxo-3-(3-(trifluoromethoxy)phenyl)-2,3-diazaspiro[4,4]non-1-en-1-yl)propyl)phenoxy)propanoic acid] | 27 nM
CC1(C)C(=O)N(c2ccc(C(F)(F)F)cc2)N=C1CCCc1ccc(OC(C)(C(=O)O)c2ccccc2)cc1 (single isomer, unassigned) [53-enantiomer#2, 2-(4-(3-(4,4-dimethyl-5-oxo-1-(4-(trifluoromethyl)phenyl)-4,5-dihydro-1H-pyrazol-3-yl)propyl)phenoxy)-2-phenylpropanoic acid] | 2.1 nM
CC(C)(Oc1ccc(CCCC2=NN(c3ccc(C(F)(F)F)cc3)C(=O)C23CCCC3)cc1)C(=O)NC1CC1 [Example 26, N-cyclopropyl-2-methyl-2-(4-(3-(4-oxo-3-(4-(trifluoromethyl)phenyl)-2,3-diazaspiro[4,4]non-1-en-1-yl)propyl)phenoxy)propanamide] | 110 nM
CC(C)(Oc1ccc(CCCC2=NN(c3ccc(C(F)(F)F)cc3)C(=O)C2(C)C)cc1)C(=O)C(F)(F)F [Example 44, 4,4-dimethyl-3-(3-(4-((4,4,4-trifluoro-2-methyl-3-oxobutan-2-yl)oxy)phenyl)propyl)-1-(4-(trifluoromethyl)phenyl)-1H-pyrazol-5(4H)-one] | 610 nM
CC(C)(Oc1ccc(CCCC2=NN(c3ccc(C(F)(F)F)cc3)C(=O)C2(C)C)cc1)C(=O)NS(=O)(=O)c1ccccc1 [Example 22, 2-(4-(3-(4,4-dimethyl-5-oxo-1-(4-(trifluoromethyl)phenyl)-4,5-dihydro-1H-pyrazol-3-yl)propyl)phenoxy)-2-methyl-N-(phenylsulfonyl)propanamide] | 0.9 nM
Cc1ccc(N2N=C(CCCc3ccc(OC(C)(C)C(=O)O)cc3)C3(CCCC3)C2=O)cc1C(F)(F)F [Example 39, 2-methyl-2-(4-(3-(3-(4-methyl-3-(trifluoromethyl)phenyl)-4-oxo-2,3-diazaspiro[4,4]non-1-en-1-yl)propyl)phenoxy)propanoic acid] | 3.1 nM
CC(C)(Oc1ccc(CCCC2=NN(Cc3ccc(C(C)(C)C)cc3)C(=O)C2(C)C)cc1)C(=O)NS(=O)(=O)c1ccccc1 [Example 2, 2-(4-(3-(1-(4-(tert-butyl)benzyl)-4,4-dimethyl-5-oxo-4,5-dihydro-1H-pyrazol-3-yl)propyl)phenoxy)-2-methyl-N-(phenylsulfonyl)propanamide] | 2.1 nM
CC(C)(Oc1ccc(CCCC2=NN(Cc3ccc(C(C)(C)C)cc3)C(=O)C2(C)C)cc1)C(=O)NCc1ccccc1 [Example 3, N-benzyl-2-(4-(3-(1-(4-(tert-butyl)benzyl)-4,4-dimethyl-5-oxo-4,5-dihydro-1H-pyrazol-3-yl)propyl)phenoxy)-2-methylpropanamide] | 160 nM
CC(C)(Oc1ccc(CCCC2=NN(Cc3ccc(C(C)(C)C)cc3)C(=O)C2(C)C)cc1)C(=O)NCc1ccccn1 [Example 4, 2-(4-(3-(1-(4-(tert-butyl)benzyl)-4,4-dimethyl-5-oxo-4,5-dihydro-1H-pyrazol-3-yl)propyl)phenoxy)-2-methyl-N-(pyridin-2-ylmethyl)propanamide] | 240 nM
CC(C)(Oc1ccc(CCCC2=NN(Cc3ccc(C(C)(C)C)cc3)C(=O)C2(C)C)cc1)C(=O)NCc1ccncc1 [Example 5, 2-(4-(3-(1-(4-(tert-butyl)benzyl)-4,4-dimethyl-5-oxo-4,5-dihydro-1H-pyrazol-3-yl)propyl)phenoxy)-2-methyl-N-(pyridin-4-ylmethyl)propanamide] | 280 nM
CC1(C)C(=O)N(c2ccc(C(F)(F)F)cc2)N=C1CCCc1ccc(OC(C)(C(=O)O)c2ccccc2)cc1 (single isomer, unassigned) [53-enantiomer#1, 2-(4-(3-(4,4-dimethyl-5-oxo-1-(4-(trifluoromethyl)phenyl)-4,5-dihydro-1H-pyrazol-3-yl)propyl)phenoxy)-2-phenylpropanoic acid] | 820 nM

The remaining compounds from weak to strong by IC50, led by results:

IC50 | SMILES
1000 nM | CC(C)(Oc1ccc(CCCC2=NN(CCc3ccccc3)C(=O)C2(C)C)cc1)C(=O)O [Example 9, 2-(4-(3-(4,4-dimethyl-5-oxo-1-phenethyl-4,5-dihydro-H-pyrazol-3-yl)propyl)phenoxy)-2-methylpropanoic acid]
960 nM | CC(C)(Oc1ccc(CCCC2=NN(Cc3ccc(C(F)(F)F)cc3)C(=O)C23CCCC3)cc1)C(=O)O [Example 34, 2-methyl-2-(4-(3-(4-oxo-3-(4-(trifluoromethyl)benzyl)-2,3-diazaspiro[4,4]non-1-en-1-yl)propyl)phenoxy)propanoic acid]
900 nM | CC(C)(Oc1ccc(CCCC2=NN(Cc3cccc(C(F)(F)F)c3)C(=O)C2(C)C)cc1)C(=O)O [Example 7, 2-(4-(3-(4,4-dimethyl-5-oxo-1-(3-(trifluoromethyl)benzyl)-4,5-dihydro-1H-pyrazol-3-yl)propyl)phenoxy)-2-methylpropanoic acid]
500 nM | Cc1ccc(N2N=C(CCCc3ccc(OC(C)(C)C(=O)NCC(F)(F)F)cc3)C3(CCCC3)C2=O)cc1C [Example 33, 2-(4-(3-(3-(3,4-dimethylphenyl)-4-oxo-2,3-diazaspiro[4,4]non-1-en-1-yl)propyl)phenoxy)-2-methyl-N-(2,2,2-trifluoroethyl)propanamide]
58 nM | CC1(C)C(=O)N(c2cccc(C(F)(F)F)c2)N=C1CCCc1ccc(OC2(C(=O)O)CCC2)cc1 [Example 51, 1-(4-(3-(4,4-dimethyl-5-oxo-1-(3-(trifluoromethyl)phenyl)-4,5-dihydro-1H-pyrazol-3-yl)propyl)phenoxy)cyclobutanecarboxylic acid]
35 nM | CC(C)(Oc1ccc(CCCC2=NN(c3ccc(C(F)(F)F)cn3)C(=O)C2(C)C)cc1)C(=O)O [Example 21, 2-(4-(3-(4,4-dimethyl-5-oxo-1-(5-(trifluoromethyl)pyridin-2-yl)-4,5-dihydro-1H-pyrazol-3-yl)propyl)phenoxy)-2-methylpropanoic acid]
8.1 nM | CC(C)(Oc1ccc(CCCC2=NN(c3ccc(C(C)(C)C)cc3)C(=O)C2(C)C)cc1)C(=O)O [Example 11, 2-(4-(3-(1-(4-(tert-butyl)phenyl)-4,4-dimethyl-5-oxo-4,5-dihydro-1H-pyrazol-3-yl)propyl)phenoxy)-2-methylpropanoic acid]
4.7 nM | CC1(C)C(=O)N(c2ccc(C(F)(F)F)cc2)N=C1CCCc1ccc(OC(C(=O)O)c2ccccc2)cc1 (stereo not shown) [Example 48, 2-(4-(3-(4,4-dimethyl-5-oxo-1-(4-(trifluoromethyl)phenyl)-4,5-dihydro-1H-pyrazol-3-yl)propyl)phenoxy)-2-phenylacetic acid]
2.6 nM | Cc1ccc(N2N=C(CCCc3ccc(OC(C)(C)C(=O)O)cc3)C3(CCCC3)C2=O)cc1C [Example 31, 2-(4-(3-(3-(3,4-dimethylphenyl)-4-oxo-2,3-diazaspiro[4,4]non-1-en-1-yl)propyl)phenoxy)-2-methylpropanoic acid]
